From patent US7723393B2, “Cycloalkylidene compounds as selective estrogen receptor modulators” (GlaxoSmithKline LLC, priority 2005, dated 2010)

| SMILES | melting point [°C] |
| --- | --- |
| CC1(C)CC(=C(c2ccccc2)c2ccc(OCCO)cc2)CC(C)(C)C1 [Example 3, 2-({4-[Phenyl(3,3,5,5-tetramethylcyclohexylidene)methyl]phenyl}oxy)ethanol] | 131 to 132 |
| CC1(C)CC(=C(c2ccccc2)c2ccc(OCCOCCO)cc2)CC(C)(C)C1 [Example 4, 2-{[2-({4-[Phenyl(3,3,5,5-tetramethylcyclohexylidene)methyl]phenyl}oxy)ethyl]oxy}ethanol] | 116 to 117 |
| CC1(C)CC(=C(c2ccc(F)cc2)c2ccc(OCC#N)cc2)CC(C)(C)C1 [Example 7, ({4-[(4-Fluorophenyl)(3,3,5,5-tetramethylcyclohexylidene)methyl]phenyl}oxy)acetonitrile] | 100 to 101 |
